Counter-ions that a name gives are not always drawn.
Assays:
[1] = target: human (h)CD73 (amino acids Trp27-Lys547) (Homo sapiens, UniProt P21589); assay: CD73 inhibition assay (Malachite Green phosphate detection); format: biochemical; details: 250 pM hCD73, 12.5 μM AMP, 20 min pre-incubation, absorbance 620 nm
Experimental: Compound inhibition of human (h)CD73 (amino acids Trp27-Lys547, R&D Systems 5795-EN-500) enzymatic activity was tested via the Malachite Green Phosphate Detection Kit (R&D DY996). Experiments were performed in 20 μL Tris buffer (25 mM Tris pH 7.5, 5 mM MgCl2, 0.002% Tween20), with 250 pM of hCD73. Test compounds of interest were prepared in a threefold serial dilution in DMSO and added to the assay to give the appropriate final concentration, with the assay DMSO concentration being 1%. Compounds were pre-incubated for 20 minutes with hCD73 in a 384 well clear plate (Greiner 781101), followed by the addition of adenosine monophosphate (AMP) to 12.5 μM. The enzymatic reaction was carried out for 20 min at room temperature. 5 μL of Malachite kit reagent A was added to stop the reaction (contains 3M H2SO4) and after 10 min, 5 μL of Malachite kit reagent B was added (Malachite Green). After 30 min, absorbance at 620 nm was read on a BMG Pherastar FSX.
Data were normalised to measurements in the absence of competing compound (0% inhibition) and in the presence of 10 μM control compound (100% inhibition).

[2] = target: CD73 activity in U138-MG cells (Homo sapiens (Human), UniProt P21589); assay: U138-MG inhibition assay (inorganic phosphate from AMP, PiColorLock Gold); format: cell-based; details: 100 μM AMP, 30 min pre-incubation, 1 hour at 37° C.
Experimental: U138-MG cells from ATCC are cultured in DMEM (Gibco 31966) with 10% FBS. Cells are seeded into 96-well culture plates (5,000 cell/well) in 100 μL of media for 24 hr. Cells are washed twice with 200 μL of assay buffer (20 mM HEPES, pH 7.4; 137 mM NaCl; 5.4 mM KCl; 1.3 mM CaCl2; 4.2 mM NaHCO3; 1 mg/mL glucose) to remove residual inorganic phosphate. CD73 inhibitor is added to each well in 100 μl volume and preincubated for 30 mins at 37° C. An equal volume of AMP substrate (Sigma A1572) is added to each well at a final concentration of 100 μM and incubated at 37° C. for 1 hour. Control wells containing cells but lacking added AMP, define the assay signal equivalent to 100% inhibition of CD73 activity. Supernatant is removed for measurement of inorganic phosphate using the PiColorLock Gold kit (Abcam, ab 270004).
The IC50 values of test compounds are determined as the inflection point of the sigmoidal concentration response curve.

CD73 in whole blood = CD73 in whole blood (Homo sapiens (Human), UniProt P21589); assay: Whole blood AMP Glo assay; format: cell-based; details: whole blood of healthy volunteers, 10 μM AMP, 30 min pre-incubation, 15 min at 37° C., levamisole 1.5 mM
Experimental: Blood is drawn from healthy volunteers by venepuncture and anti-coagulated with Lithium Heparin (10 IU/mi). 150 μl of blood is added to U-bottom polypropylene 96-well assay plates pre-filled with 20 μl of compound dilutions prepared in RPMI also containing the Tissue Non-specific Alkaline Phosphatase inhibitor Levamisole (final assay concentration 1.5 mM). Control wells to define uninhibited CD73 contain DMSO in place of compound. Control wells to define complete stabilization of AMP attributable to CD73 contain LY3475070 (CAS: 2375815-63-5) at 30 μM final assay concentration.
Compounds are pre-incubated with whole blood at 37° C. for 30 minutes. Following this, AMP is added in a 30 μl volume for a final assay concentration of 10 μM, mixed, and the plates are incubated for 15 minutes at 37° C. Final DMSO concentration/well is 0.6% and final volume/well is 200 μL. After incubating with AMP, the plates are placed on ice and then centrifuged at 2000 g for 10 minutes at 4° C. Plasma is removed and then diluted 1:10 with pre-chilled HBSS (Ca2+& Mg2+free) and kept on ice.
The stabilized AMP concentration in diluted plasma is measured using AMP-Glo kit (Promega), in parallel with a standard curve of known AMP concentrations, with a final volume of 40 μl in white flat bottom half-well 96-well plates (Corning). Signal is measured by Luminescence. The IC50 values of test compounds are determined as the inflection point of the sigmoidal concentration response curve.

Sequence of CD73 in whole blood (P21589 27-574): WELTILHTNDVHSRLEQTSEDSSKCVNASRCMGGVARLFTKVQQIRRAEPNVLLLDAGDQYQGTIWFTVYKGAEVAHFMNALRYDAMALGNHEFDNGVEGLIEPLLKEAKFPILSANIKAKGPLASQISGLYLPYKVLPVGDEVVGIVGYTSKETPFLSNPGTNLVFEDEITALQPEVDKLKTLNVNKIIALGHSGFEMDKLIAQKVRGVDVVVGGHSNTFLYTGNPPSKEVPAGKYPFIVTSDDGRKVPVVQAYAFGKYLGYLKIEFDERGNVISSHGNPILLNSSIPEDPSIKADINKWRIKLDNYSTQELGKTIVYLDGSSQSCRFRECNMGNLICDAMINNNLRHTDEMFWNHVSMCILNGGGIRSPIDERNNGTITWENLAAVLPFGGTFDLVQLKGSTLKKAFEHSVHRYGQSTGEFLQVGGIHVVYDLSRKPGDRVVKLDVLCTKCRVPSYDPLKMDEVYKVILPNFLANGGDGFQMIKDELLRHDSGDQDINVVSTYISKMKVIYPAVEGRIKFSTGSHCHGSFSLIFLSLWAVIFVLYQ
Sequence of CD73 activity in U138-MG cells (P21589 27-574): as above

IC50 [1] [nM] | IC50 [2] [nM] | IC50 (CD73 in whole blood) [nM] | SMILES
85.4 | 61.1 | 50.1 | O=c1[nH]cc(-c2cc3c(N4CCC(OCCN5CCC(F)(F)CC5)C4)ncnn3c2)c(=O)[nH]1 (stereo not drawn) [Example 10.1, 5-[4-[3-[2-(4,4-Difluoro-1-piperidyl)ethoxy]pyrrolidin-1-yl]pyrrolo[2,1-f][1,2,4]triazin-6-yl]-1H-pyrimidine-2,4-dione]
130 | 312 | 1590 | CC1(C)CN(c2ncnn3cc(-c4c[nH]c(=O)[nH]c4=O)cc23)CC1(F)F [Example 10.2, 5-[4-(3,3-Difluoro-4,4-dimethyl-pyrrolidin-1-yl)pyrrolo[2,1-f][1,2,4]triazin-6-yl]-1H-pyrimidine-2,4-dione]
103 | 246 | 686 | N#Cc1cnc2sc(-c3c[nH]c(=O)[nH]c3=O)cc2c1N1CCC(OCCN2CCCCC2)C1 (stereo not drawn) [Example 11, 2-(2,4-Dioxo-1H-pyrimidin-5-yl)-4-[3-[2-(1-piperidyl)ethoxy]pyrrolidin-1-yl]thieno[2,3-b]pyridine-5-carbonitrile]
33.7 | 2.7 | 0.6 | O=c1[nH]cc(-n2cc3c(N4CCC(OCCN5CCCCC5)C4)ncnc3n2)c(=O)[nH]1 (stereo not drawn) [Example 12, 5-[4-[3-[2-(1-Piperidyl)ethoxy]pyrrolidin-1-yl]pyrazolo[3,4-d]pyrimidin-2-yl]-1H-pyrimidine-2,4-dione hydrochloride]
44.8 | 1.8 | 0.47 | CC1(C)CN(c2ncnc3nn(-c4c[nH]c(=O)[nH]c4=O)cc23)CC1(F)F [Example 13, 5-[4-(3,3-Difluoro-4,4-dimethyl-pyrrolidin-1-yl)pyrazolo[3,4-d]pyrimidin-2-yl]-1H-pyrimidine-2,4-dione]
37.1 | 2.4 | 1.15 | O=c1[nH]cc(-n2cc3c(N4CC(F)(F)C5(CC5)C4)ncnc3n2)c(=O)[nH]1 [Example 13.1, 5-[4-(7,7-Difluoro-5-azaspiro[2.4]heptan-5-yl)pyrazolo[3,4-d]pyrimidin-2-yl]-1H-pyrimidine-2,4-dione]
60.7 | 2.1 | 1.13 | O=c1[nH]cc(-n2cc3c(N4CC(F)(F)C5(CCC5)C4)ncnc3n2)c(=O)[nH]1 [Example 13.2, 5-[4-(8,8-Difluoro-6-azaspiro[3.4]octan-6-yl)pyrazolo[3,4-d]pyrimidin-2-yl]-1H-pyrimidine-2,4-dione]
124 | 4.5 | 3.52 | O=c1[nH]cc(-n2cc3c(N4CC(F)(F)C5(CCCC5)C4)ncnc3n2)c(=O)[nH]1 [Example 13.3, 5-[4-(4,4-Difluoro-2-azaspiro[4.4]nonan-2-yl)pyrazolo[3,4-d]pyrimidin-2-yl]-1H-pyrimidine-2,4-dione]
95 | 35.3 | 14.1 | O=c1[nH]cc(-n2cc3c(N4C[C@H]5CCC[C@H]5C4)ncnc3n2)c(=O)[nH]1 [Example 13.4, 5-[4-[(3aR,6aS)-3,3a,4,5,6,6a-Hexahydro-1H-cyclopenta[c]pyrrol-2-yl]pyrazolo[3,4-d]pyrimidin-2-yl]-1H-pyrimidine-2,4-dione]
84.7 | 10.5 | 2.12 | CCC1(C)CCN(c2ncnc3nn(-c4c[nH]c(=O)[nH]c4=O)cc23)C1 (stereo not drawn) [Example 13.5, 5-[4-(3-Ethyl-3-methyl-pyrrolidin-1-yl)pyrazolo[3,4-d]pyrimidin-2-yl]-1H-pyrimidine-2,4-dione]
31.1 | 8.6 | 1.19 | CC1(C)CCN(c2ncnc3nn(-c4c[nH]c(=O)[nH]c4=O)cc23)C1 [Example 13.6, 5-[4-(3,3-Dimethylpyrrolidin-1-yl)pyrazolo[3,4-d]pyrimidin-2-yl]-1H-pyrimidine-2,4-dione]
73.9 | 20.9 | 7.58 | CCC1(CC)CCN(c2ncnc3nn(-c4c[nH]c(=O)[nH]c4=O)cc23)C1 [Example 13.7, 5-[4-(3,3-Diethylpyrrolidin-1-yl)pyrazolo[3,4-d]pyrimidin-2-yl]-1H-pyrimidine-2,4-dione]
47.6 | 12.1 | 1.5 | O=c1[nH]cc(-n2cc3c(N4CC(F)(F)C(F)(F)C4)ncnc3n2)c(=O)[nH]1 [Example 13.8, 5-[4-(3,3,4,4-Tetrafluoropyrrolidin-1-yl)pyrazolo[3,4-d]pyrimidin-2-yl]-1H-pyrimidine-2,4-dione]
303 | 49.2 | 5.5 | O=c1[nH]cc(-n2cc3c(N4C[C@H]5COC[C@H]5C4)ncnc3n2)c(=O)[nH]1 [Example 13.9, 5-[4-[(3aR,6aS)-1,3,3a,4,6,6a-Hexahydrofuro[3,4-c]pyrrol-5-yl]pyrazolo[3,4-d]pyrimidin-2-yl]-1H-pyrimidine-2,4-dione]
49.2 | 3.2 | 1.5 | COC1CN(c2ncnc3nn(-c4c[nH]c(=O)[nH]c4=O)cc23)CC1(F)F (stereo not drawn) [Example 13.11, 5-[4-(3,3-Difluoro-4-methoxy-pyrrolidin-1-yl)pyrazolo[3,4-d]pyrimidin-2-yl]-1H-pyrimidine-2,4-dione]
62.8 | 177 | 549 | O=c1[nH]cc(-c2cc3c(N4CCC(OCCN5CCCCC5)C4)ccnc3s2)c(=O)[nH]1 (stereo not drawn) [Example 14, 5-[4-[3-[2-(1-Piperidyl)ethoxy]pyrrolidin-1-yl]thieno[2,3-b]pyridin-2-yl]-1H-pyrimidine-2,4-dione]
139 | 65.6 | 56.5 | O=c1[nH]cc(-c2nc3c(N4CCC(OCCN5CCCCC5)C4)ncnc3[nH]2)c(=O)[nH]1 (stereo not drawn) [Example 15, 5-[6-[3-[2-(1-Piperidyl)ethoxy]pyrrolidin-1-yl]-9H-purin-8-yl]-1H-pyrimidine-2,4-dione]
297 | 1340 | 1550 | O=c1[nH]cc(-c2cc3nccc(N4CCC(OCCN5CCCCC5)C4)c3s2)c(=O)[nH]1 (stereo not drawn) [Example 16, 5-[7-[3-[2-(1-Piperidyl)ethoxy]pyrrolidin-1-yl]thieno[3,2-b]pyridin-2-yl]-1H-pyrimidine-2,4-dione]
59.4 | 108 | 119 | O=c1[nH]cc(-c2cc3c(N4CC(OCCN5CCCCC5)C(F)(F)C4)ncnn3c2)c(=O)[nH]1 (stereo not drawn) [Example 17, 5-[4-[3,3-Difluoro-4-[2-(1-piperidyl)ethoxy]pyrrolidin-1-yl]pyrrolo[2,1-f][1,2,4]triazin-6-yl]-1H-pyrimidine-2,4-dione formate salt]
62.5 | 91.1 | 118 | O=C1N=CC(c2cc3c(N4CCC(OCCN5CCCCC5)C4)nc(Cl)nn3c2)C(=O)N1 (stereo not drawn) [Example 18, 5-[2-Chloro-4-[3-[2-(1-piperidyl)ethoxy]pyrrolidin-1-yl]pyrrolo[2,1-f][1,2,4]triazin-6-yl]-5H-pyrimidine-2,4-dione]
58.2 | 68.7 | 1240 | O=c1[nH]cc(-c2cc3c(N4CC(F)(F)C5(CCC5)C4)ncnc3o2)c(=O)[nH]1 [Example 19, 5-[4-(8,8-Difluoro-6-azaspiro[3.4]octan-6-yl)furo[2,3-d]pyrimidin-6-yl]-1H-pyrimidine-2,4-dione]

Reference: patent publication US20250340565A1, “CD73 INHIBITOR COMPOUNDS” (AdoRx Therapeutics Limited, priority 2022, published 2025)
